Results reported in patent publication US20120329787A1, “FUNGICIDAL PYRANONES AND OXAZINONES” (E.I. DU PONT DE NEMOURS AND COMPANY, priority 2011, published 2012).
Marks after values point to notes of the source that are not given here.

Assays:
Type in all cases: in vivo
Botrytis cinerea = experiment: Test A: tomato Botrytis, spray on tomato seedlings the day before inoculation; details: 200 ppm test suspension
Outline: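 Visual disease rating after Botrytis cinerea spore inoculation one day post-treatment, incubation 48 h at 20 °C in saturated atmosphere then 3 days at 24 °C. Preventive foliar spray to run-off on tomato seedlings at 200 ppm (500 g/ha equivalent) or 40 ppm, acetone/water with surfactant.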

Phytophthora infestans = details: 200 ppm test suspension; tomato seedlings
Rhizoctonia solani = experiment: Test D: turf brown patch, spray on creeping bent grass seedlings the day before inoculation; details: 200 ppm test suspension
From the text: General protocol for preparing test suspensions for Tests A-I: the test compounds were first dissolved in acetone in an amount equal to 3% of the final volume and then suspended at the desired concentration (in ppm) in acetone and purified water (50/50 mix by volume) containing 250 ppm of the surfactant Trem® 014 (polyhydric alcohol esters). The resulting test suspensions were then used in Tests A-I. Spraying a 200 ppm test suspension to the point of run-off on the test plants was the equivalent of a rate of 500 g/ha. […] (An asterisk “*” next to the rating value indicates a 40 ppm test suspension was used.) The test suspension was sprayed to the point of run-off on creeping bent grass (Agrostis sp.) seedlings. The following day, the seedlings were inoculated with a bran and mycelial slurry of Rhizoctonia solani (the causal agent of turf brown patch) and incubated in a saturated atmosphere at 27° C. for 48 h, and then moved to a growth chamber at 27° C. for 3 days, after which time disease ratings were made. […] A dash (-) indicates no test results. All results are for 200 ppm except where followed by an asterisk “*”, which indicates a 40 ppm.

Septoria nodorum = experiment: Test E: Septoria glume blotch, spray on wheat seedlings the day before inoculation; details: 200 ppm test suspension
Outline: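 Wheat seedlings received a run-off spray of test suspension, then were inoculated with Septoria nodorum one day later. Suspensions: 200 ppm (≈500 g/ha) or, where asterisked, 40 ppm, in 50/50 acetone/water containing 250 ppm Trem 014.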

Septoria tritici = experiment: Test F: wheat leaf blotch, spray on wheat seedlings the day before inoculation; details: 200 ppm test suspension
Outline: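 Protectant test: Septoria tritici spores inoculated one day after run-off spraying of test suspension (200 ppm, equal to 500 g/ha, or 40 ppm; acetone/water, 250 ppm Trem 014). Plants kept 48 h at 24° C in saturated air and 19 further days at 20° C, then disease scored visually.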

[1] = system: Puccinia recondita f. sp. tritici; experiment: Test H: wheat leaf rust, spray on wheat seedlings the day before inoculation; details: 200 ppm test suspension, sprayed before inoculation
Outline: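 Preventive test: one day after run-off spraying of seedlings at 200 ppm (some at 40 ppm), Puccinia recondita spores were applied. Disease was scored visually after 24 h saturated humidity plus 6 days, both at 20 °C.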

[2] = system: Erysiphe graminis f. sp. tritici; experiment: Test I: wheat powdery mildew, spray on wheat seedlings the day before inoculation; details: 200 ppm test suspension
Outline: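 Protectant test: spore-dust inoculation one day after run-off spraying, then 7 days in a 20° C growth chamber before visual scoring. Suspensions were 200 ppm, or 40 ppm where flagged, in 50/50 acetone-water containing 250 ppm Trem 014.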

Alternaria solani = experiment: Test B: tomato early blight, spray on tomato seedlings the day before inoculation
Outline: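 Visual blight ratings were made after 48 h saturated incubation at 27 °C plus 5 days at 20 °C, following A. solani spore inoculation one day after run-off spraying at 200 ppm (or 40 ppm where marked).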

Compound	Test A rating (100 = 100% disease control, 0 = no disease control) (Botrytis cinerea) [%]	Test C rating (100 = 100% disease control, 0 = no disease control) (Phytophthora infestans) [%]	Test D rating (100 = 100% disease control, 0 = no disease control) (Rhizoctonia solani) [%]	Test E rating (100 = 100% disease control, 0 = no disease control) (Septoria nodorum) [%]	Test F rating (100 = 100% disease control, 0 = no disease control) (Septoria tritici) [%]	Test H rating (100 = 100% disease control, 0 = no disease control) [1] [%]	Test I rating (100 = 100% disease control, 0 = no disease control) [2] [%]	Test B rating (100 = 100% disease control, 0 = no disease control) (Alternaria solani; 200 ppm test suspension) [%]	Test B rating (100 = 100% disease control, 0 = no disease control) (Alternaria solani; 40 ppm test suspension (asterisk))
Cc1noc(=O)c(-c2ccc(Cl)cc2)c1-c1c(F)cccc1F [Compound 2]	47	17	0	0	97	0	92		
Cc1noc(=O)c(-c2cccc(F)c2)c1-c1c(F)cccc1F [Compound 4]	0	8	0	0	0	0	0		
Cc1noc(=O)c(-c2c(F)cc(F)cc2F)c1-c1ccc(Cl)c(F)c1 [Compound 16]	0	0	0	0	97	0	0	0	
COc1cc(OC)cc(-c2c(-c3ccccc3F)noc(=O)c2-c2c(F)cccc2F)c1 [Compound 22]	0	0	8	0	0	0	0	0	
Cc1noc(=O)c(-c2cccc(F)c2)c1-c1ccccc1 [Compound 1]	0	0	0	0	37	0	0		
Cc1noc(=O)c(-c2c(F)cc(F)cc2F)c1-c1ccc(C(F)(F)F)cc1 [Compound 12]	0	0	0	0		0	98		99* %
Cc1noc(=O)c(-c2c(F)cc(F)cc2F)c1-c1ccc(F)cc1 [Compound 11]	100	0	26	64		98	100	99	
Cc1noc(=O)c(-c2c(F)cccc2Cl)c1-c1ccc(Cl)cc1 [Compound 8]	100	0	52	0		98	99	99	
COc1cc(OC)cc(-c2c(-c3ccccc3F)noc(=O)c2-c2ccc(F)cc2F)c1 [Compound 21]	0	0	0	0	0	0	0	0	
Cc1noc(=O)c(-c2c(F)cc(F)cc2F)c1-c1ccc(Cl)cc1 [Compound 3]	99	9	78	0	99	98	99	100	
Cc1noc(=O)c(-c2c(F)cc(F)cc2F)c1-c1cccc(F)c1 [Compound 5]	0	0	16	0		0	20	54	
Cc1noc(=O)c(-c2ccc(F)cc2F)c1-c1ccc(Cl)cc1 [Compound 13]	0	0	0	0		91	99	9	
